Results published in patent publication US12377080B2, “Allosteric EGFR inhibitors and methods of use thereof” (Dana-Farber Cancer Institute, Inc., priority 2019, dated 2025).

Legend:
[1] = test system: EGFR L858R/T790M mutant Ba/F3 Cells; experiment: Ba/F3 cell proliferation (Cell Titer Glo) in combination with cetuximab; assay type: cell-based, murine; details: 72 hours
Description: The EGFR mutant L858R, Del E746_A750, L858R/T790M, Del E746_A750/T790M, L858R/T790MIC797S, and DellT790MIC797S Ba/F3 cells have been previously described (Zhou, W., et al, Nature 462, 2009, 1070-1074). All cell lines were maintained in RPM I 1640 (Cellgro; Mediatech Inc., Herndon, CA) supplemented with 10% FBS, 100 units/mL penicillin, 100 units/mL streptomycin. The EGFR 1941 R mutation was introduced via site directed mutagenesis using the Quick Change Site-Directed Mutagenesis kit (Stratagene; La Jolla, CA) according to the manufacturer's instructions. All constructs were confirmed by DNA sequencing. The constructs were shuttled into the retroviral vector JP1540 using the Cre-recombination system (Agilent Technologies, Santa Clara, CA). Ba/F3 cells were then infected with retrovirus per standard protocols, as described previously (Zhou, et al, Nature 2009). Stable clones were obtained by selection in puromycin (2 μg/ml),
Growth and inhibition of growth was assessed by the Cell Titer Glo assay (Promega, Madison, WI) and was performed according to the manufacturer's instructions. The Cell Titer Glo assay is a luminescence-based method used to determine the number of viable cells based on quantitation of the ATP present, which is directly proportional to the amount of metabolically active cells present. Ba/F3 cells of different EGFR genotypes were exposed to compounds as a single agent or in combination with […] for 72 hours and the number of cells used per experiment was determined empirically as has been previously established (Zhou, et al., Nature 2009). All experimental points were set up in triplicates in 384-well plates and all experiments were repeated at least three times. […] The curves were fitted using a non-linear regression model with a sigmoidal dose response.

EGFR L858R/T790M = EGFR L858R/T790M (Homo sapiens (Human), UniProt P00533, L858R/T790M); experiment: HTRF-based EGFR biochemical assay (L858R/T790M); details: 100 μM ATP
Experimental: (§1) EGFR biochemical activity measurements were carried out using the homogeneous time-resolved fluorescence (HTRF) assay (Cisbio). Inhibitors and DMSO normalizations were first dispensed to empty black low-volume 384-well plates (Corning) with D300 digital liquid dispenser (HP). All reactions were carried out at room temperature and solutions were added to plates with a Multidrop Combi Reagent Dispenser (ThermoFisher). The reaction mixture (10 μL final volume) contained 1 μM tyrosine kinase peptide-biotin substrate and mutant EGFR in a reaction buffer (50 mM HEPES pH 7,0, 5 mM MgCl2,1 mM MnCl2, 0.01% BSA, 2 mM TCEP, 0.1 mM NaVO4). Enzyme concentrations were adjusted to accommodate varying kinase activities (L858R 0.1 nM, L858R!T790M 0,02 nM). Enzyme reaction solution (2× concentrations, 5 μL) was added to 384-well plates containing compounds and incubated for 30 mins. Enzyme reactions were initiated with the addition of […] of ATP to a final concentration of 100 μM and reacted for 20 mins. Reactions were quenched with the addition of 10 μL of phospho-tyrosine antibody-Europium(III) cryptate (1-to-180 volume ratio) and Streptavidin-XL665 (46.7 nM) in EDTA-containing detection buffer, then incubated at room temperature for 1 hour, and read with a PHERAstar plate reader (excitation =337 nm, emission =620 nm and 665 nm).

EGFR L858R = EGFR L858R (Homo sapiens (Human), UniProt P00533, L858R); experiment: HTRF-based EGFR biochemical assay (L858R); details: 100 μM ATP
Experimental: as §1

Sequence of EGFR L858R (P00533 25-1210 L858R): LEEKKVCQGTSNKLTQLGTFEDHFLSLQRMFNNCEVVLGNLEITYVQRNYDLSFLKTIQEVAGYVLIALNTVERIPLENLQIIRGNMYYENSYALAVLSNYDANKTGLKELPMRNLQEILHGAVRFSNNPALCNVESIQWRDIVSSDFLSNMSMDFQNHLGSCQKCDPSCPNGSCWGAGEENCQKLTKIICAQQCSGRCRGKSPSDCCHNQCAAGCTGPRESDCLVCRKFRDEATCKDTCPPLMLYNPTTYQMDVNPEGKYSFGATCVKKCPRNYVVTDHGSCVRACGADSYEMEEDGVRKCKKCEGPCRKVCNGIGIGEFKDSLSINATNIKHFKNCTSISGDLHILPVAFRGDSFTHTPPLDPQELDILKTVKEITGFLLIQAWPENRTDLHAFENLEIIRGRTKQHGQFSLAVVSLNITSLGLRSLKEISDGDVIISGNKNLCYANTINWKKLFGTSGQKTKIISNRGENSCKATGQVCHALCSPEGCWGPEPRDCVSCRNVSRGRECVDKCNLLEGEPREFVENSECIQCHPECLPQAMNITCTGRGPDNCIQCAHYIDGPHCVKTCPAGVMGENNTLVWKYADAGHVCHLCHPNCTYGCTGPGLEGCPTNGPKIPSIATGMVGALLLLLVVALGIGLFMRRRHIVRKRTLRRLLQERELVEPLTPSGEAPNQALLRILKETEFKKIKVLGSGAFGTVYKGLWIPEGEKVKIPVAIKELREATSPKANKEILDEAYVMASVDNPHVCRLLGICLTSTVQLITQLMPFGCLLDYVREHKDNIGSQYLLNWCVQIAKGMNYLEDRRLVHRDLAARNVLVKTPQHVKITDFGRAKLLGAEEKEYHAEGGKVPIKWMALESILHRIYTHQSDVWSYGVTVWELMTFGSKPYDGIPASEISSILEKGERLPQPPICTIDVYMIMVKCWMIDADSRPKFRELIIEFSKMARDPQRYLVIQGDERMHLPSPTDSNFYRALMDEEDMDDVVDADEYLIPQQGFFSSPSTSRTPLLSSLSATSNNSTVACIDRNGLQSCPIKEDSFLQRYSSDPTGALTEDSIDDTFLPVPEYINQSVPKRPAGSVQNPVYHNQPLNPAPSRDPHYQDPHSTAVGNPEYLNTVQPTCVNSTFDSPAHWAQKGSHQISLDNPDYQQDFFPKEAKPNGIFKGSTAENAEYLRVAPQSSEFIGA
Sequence of EGFR L858R/T790M (P00533 25-1210 T790M/L858R): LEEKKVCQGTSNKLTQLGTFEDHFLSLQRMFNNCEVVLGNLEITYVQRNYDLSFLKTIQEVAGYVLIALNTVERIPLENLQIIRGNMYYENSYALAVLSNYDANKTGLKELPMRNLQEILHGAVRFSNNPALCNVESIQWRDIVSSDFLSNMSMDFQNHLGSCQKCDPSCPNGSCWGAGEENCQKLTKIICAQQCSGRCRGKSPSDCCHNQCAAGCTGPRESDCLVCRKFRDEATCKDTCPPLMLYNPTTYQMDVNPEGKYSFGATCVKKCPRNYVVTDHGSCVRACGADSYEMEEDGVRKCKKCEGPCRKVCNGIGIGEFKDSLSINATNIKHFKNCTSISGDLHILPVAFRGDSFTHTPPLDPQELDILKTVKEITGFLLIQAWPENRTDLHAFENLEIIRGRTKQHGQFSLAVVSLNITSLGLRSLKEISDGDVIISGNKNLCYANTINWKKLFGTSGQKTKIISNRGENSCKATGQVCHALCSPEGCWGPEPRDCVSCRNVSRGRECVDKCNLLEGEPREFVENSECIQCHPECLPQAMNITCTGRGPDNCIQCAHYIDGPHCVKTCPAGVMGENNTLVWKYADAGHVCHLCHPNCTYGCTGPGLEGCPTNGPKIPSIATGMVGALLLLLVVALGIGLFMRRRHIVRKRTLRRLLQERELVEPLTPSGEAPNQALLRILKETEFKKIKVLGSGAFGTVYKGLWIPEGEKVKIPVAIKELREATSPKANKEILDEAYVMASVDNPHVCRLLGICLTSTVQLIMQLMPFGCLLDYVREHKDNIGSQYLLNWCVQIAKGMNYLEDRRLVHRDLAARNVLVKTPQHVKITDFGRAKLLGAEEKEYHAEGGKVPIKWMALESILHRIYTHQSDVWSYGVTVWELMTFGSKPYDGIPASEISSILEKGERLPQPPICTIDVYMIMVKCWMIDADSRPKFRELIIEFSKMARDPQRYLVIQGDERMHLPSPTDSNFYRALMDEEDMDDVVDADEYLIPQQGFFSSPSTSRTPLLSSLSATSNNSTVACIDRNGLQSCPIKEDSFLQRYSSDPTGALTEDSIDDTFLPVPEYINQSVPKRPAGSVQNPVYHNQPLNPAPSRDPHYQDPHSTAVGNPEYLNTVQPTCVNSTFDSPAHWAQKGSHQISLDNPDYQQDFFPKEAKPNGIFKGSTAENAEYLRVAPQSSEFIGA

Row | IC50 [1] [nM] | IC50 (EGFR L858R/T790M) [nM] | IC50 (EGFR L858R) [nM] | SMILES
1 | 5480 | – | – | O=C(Nc1nccs1)C(c1cccc(F)c1)N1Cc2cnc(Br)cc2C1=O (centres unmarked) [Compound 1, 2-(6-bromo-1-oxo-1,3-dihydro-2H-pyrrolo[3,4-c]pyridin-2-yl)-2-(3-fluorophenyl)-N-(thiazol-2-yl)acetamide]
2 | 380 | – | – | O=C(Nc1nccs1)C(c1cccc(F)c1)N1Cc2ncc(Br)cc2C1=O (centres unmarked) [Compound 2, 2-(3-bromo-5-oxo-5,7-dihydro-6H-pyrrolo[3,4-b]pyridin-6-yl)-2-(3-fluorophenyl)-N-(thiazol-2-yl)acetamide]
3 | 2370 | – | – | O=C(Nc1ccccn1)C(c1cccc(F)c1)N1Cc2ncc(Br)cc2C1=O (centres unmarked) [Compound 3, 2-(3-bromo-5-oxo-5,7-dihydro-6H-pyrrolo[3,4-b]pyridin-6-yl)-2-(3-fluorophenyl)-N-(pyridin-2-yl)acetamide]
4 | 1760 | – | – | O=C(Nc1nccs1)C(c1cccc(F)c1)N1Cc2ccc(Br)nc2C1=O (centres unmarked) [Compound 4, 2-(2-bromo-7-oxo-5,7-dihydro-6H-pyrrolo[3,4-b]pyridin-6-yl)-2-(3-fluorophenyl)-N-(thiazol-2-yl)acetamide]
5 | > 10000 | – | – | O=C(Nc1ccccn1)C(c1cccc(F)c1)N1Cc2ccc(Br)nc2C1=O (centres unmarked) [Compound 5, 2-(2-bromo-7-oxo-5,7-dihydro-6H-pyrrolo[3,4-b]pyridin-6-yl)-2-(3-fluorophenyl)-N-(pyridin-2-yl)acetamide]
6 | 130 | 6 | 60 | CN1CCC(c2ccc(-c3cc4c(cn3)CN(C(C(=O)Nc3nccs3)c3cccc(F)c3)C4=O)cc2)CC1 (centres unmarked) [Compound 6, 2-(3-fluorophenyl)-2-(6-(4-(1-methylpiperidin-4-yl)phenyl)-1-oxo-1,3-dihydro-2H-pyrrolo-[3,4-c]pyridin-2-yl)-N-(thiazol-2-yl)acetamide]
7 | 480 | 10 | 301 | CN1CCN(c2ccc(-c3cc4c(cn3)CN(C(C(=O)Nc3nccs3)c3cccc(F)c3)C4=O)cc2)CC1 (centres unmarked) [Compound 7, 2-(3-fluorophenyl)-2-(6-(4-(4-methylpiperazin-1-yl)phenyl)-1-oxo-1,3-dihydro-2H-pyrrolo-[3,4-c]pyridin-2-yl)-N-(thiazol-2-yl)acetamide]
8 | 200 | 1 | 20 | CN1CCN(c2ccc(-c3cnc4c(c3)C(=O)N(C(C(=O)Nc3nccs3)c3cccc(F)c3)C4)cn2)CC1 (centres unmarked) [Compound 8, 2-(3-fluorophenyl)-2-(3-(6-(4-methylpiperazin-1-yl)pyridin-3-yl)-5-oxo-5,7-dihydro-6H-pyrrolo[3,4-b]pyridin-6-yl)-N-(thiazol-2-yl)acetamide]
9 | 10 | 1 | 5 | CN1CCC(c2ccc(-c3cnc4c(c3)C(=O)N(C(C(=O)Nc3nccs3)c3cccc(F)c3)C4)cc2)CC1 (centres unmarked) [Compound 9, 2-(3-fluorophenyl)-2-(3-(4-(1-methylpiperidin-4-yl)phenyl)-5-oxo-5,7-dihydro-6H-pyrrolo-[3,4-b]pyridin-6-yl)-N-(thiazol-2-yl)acetamide]
10 | 100 | 4 | 46 | CN1CCN(c2ccc(-c3cnc4c(c3)C(=O)N(C(C(=O)Nc3nccs3)c3cccc(F)c3)C4)cc2)CC1 (centres unmarked) [Compound 10, 2-(3-fluorophenyl)-2-(3-(4-(4-methylpiperazin-1-yl)phenyl)-5-oxo-5,7-dihydro-6H-pyrrolo-[3,4-b]pyridin-6-yl)-N-(thiazol-2-yl)acetamide]
11 | 50 | 3 | 27 | CN1CCC(c2ccc(-c3cnc4c(c3)C(=O)N(C(C(=O)Nc3nccs3)c3cccc(F)c3)C4)cc2)C1 (centres unmarked) [Compound 11, 2-(3-fluorophenyl)-2-(3-(4-(1-methylpyrrolidin-3-yl)phenyl)-5-oxo-5,7-dihydro-6H-pyrrolo-[3,4-b]pyridin-6-yl)-N-(thiazol-2-yl)acetamide]
